Activity calls are given as the source filed them.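 How the source made its calls: active means compounds blocking the hormone-driven reporter light with IC50 under 35 µM; inactive means IC50 above 35 µM, or no measured IC50.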 Bounds are passed on as bounds.

This assay addresses Bursicon receptor (Drosophila rickets, LGR2). The assay is described as follows: LGR2 bursicon receptor antagonists, dose response, cell-based, HEK293, CRE-luciferase, beta-gal normalized, dry powder, set 4 (AID 743504). The following applies: bursicon-stimulated, antagonist.
Take `COc1ccc(NC(=O)N(C)C[C@@H]2OCCCC[C@H](C)Oc3ccc(NC(=O)C4CCCCC4)cc3C(=O)N([C@H](C)CO)C[C@@H]2C)cc1`: the IC50 is under 35 µM.
With `C[C@H](CO)N1C[C@H](C)[C@H](CN(C)C(=O)Nc2ccccc2)OCCCC[C@H](C)Oc2ccc(NC(=O)C3CCCCC3)cc2C1=O`, the IC50 is under 35 µM.
Turning to `C[C@@H]1CCCCO[C@H](CN(C)C(=O)Nc2ccc(F)cc2)[C@H](C)CN([C@@H](C)CO)C(=O)c2cc(NC(=O)C3CCCCC3)ccc2O1`, the IC50 was > 35 µM (inactive).
Take `C[C@H](CO)N1C[C@H](C)[C@H](CN(C)C(=O)Nc2ccc3c(c2)OCO3)OCCCC[C@H](C)Oc2ccc(NC(=O)C3CCCCC3)cc2C1=O`: the IC50 is under 35 µM.
With `C[C@H](CO)N1C[C@H](C)[C@H](CN(C)C(=O)Nc2ccc(F)cc2)OCCCC[C@H](C)Oc2ccc(NC(=O)C3CCCCC3)cc2C1=O`, the IC50 is under 35 µM.

The IC50 is the concentration that gives 50% inhibition.

The values above are taken from PubChem BioAssay AID743504 (Broad Institute, 2014).
